From PubChem BioAssay (NCI)
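Results reflect a 48-hour exposure of cells in 96-well plates to compound at five concentrations. The concentration for full growth arrest is given as TGI.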

Assays:
Experiment in all cases: NCI tumour cell line growth inhibition, 48 h
RXF 393 renal = test system: RXF 393 renal
NCI-H522 lung = test system: NCI-H522 lung
SW-620 colon = test system: SW-620 colon
NCI-H23 lung = test system: NCI-H23 lung
SK-MEL-2 melanoma = test system: SK-MEL-2 melanoma
SF-268 CNS = test system: SF-268 CNS
DMS 273 small cell lung = test system: DMS 273 small cell lung
P388 leukemia = test system: P388 leukemia
LOX IMVI melanoma = test system: LOX IMVI melanoma
KM20L2 colon = test system: KM20L2 colon
P388/ADR leukemia = test system: P388/ADR leukemia
SK-MEL-28 melanoma = test system: SK-MEL-28 melanoma
UACC-62 melanoma = test system: UACC-62 melanoma
A498 renal = test system: A498 renal
U251 CNS = test system: U251 CNS
SK-MEL-5 melanoma = test system: SK-MEL-5 melanoma
XF 498 CNS = test system: XF 498 CNS
M19-MEL melanoma = test system: M19-MEL melanoma
HCT-116 colon = test system: HCT-116 colon
KM12 colon = test system: KM12 colon
HCT-15 colon = test system: HCT-15 colon
K-562 leukemia = test system: K-562 leukemia
SK-OV-3 ovarian = test system: SK-OV-3 ovarian
IGROV1 ovarian = test system: IGROV1 ovarian
DLD-1 colon = test system: DLD-1 colon
NCI/ADR-RES ovarian = test system: NCI/ADR-RES ovarian
RPMI-8226 leukemia = test system: RPMI-8226 leukemia
HOP-18 NSCLC = test system: HOP-18 NSCLC
MCF7 breast = test system: MCF7 breast
SNB-19 CNS = test system: SNB-19 CNS
SN12K1 renal = test system: SN12K1 renal
COLO 205 colon = test system: COLO 205 colon
UO-31 renal = test system: UO-31 renal
CCRF-CEM leukemia = test system: CCRF-CEM leukemia
SN12C renal = test system: SN12C renal
MALME-3M melanoma = test system: MALME-3M melanoma
OVCAR-8 ovarian = test system: OVCAR-8 ovarian
HOP-92 NSCLC = test system: HOP-92 NSCLC
DMS 114 small cell lung = test system: DMS 114 small cell lung
HT29 colon = test system: HT29 colon
OVCAR-5 ovarian = test system: OVCAR-5 ovarian
OVCAR-4 ovarian = test system: OVCAR-4 ovarian
OVCAR-3 ovarian = test system: OVCAR-3 ovarian
EKVX NSCLC = test system: EKVX NSCLC
UACC-257 melanoma = test system: UACC-257 melanoma

`COc1ccc(N[C@@H]2c3cc4c(cc3C(c3cc(OC)c(O)c(OC)c3)[C@H]3C(=O)OCC32)OCO4)cc1OC` (stereo not given in full) gave a TGI (RXF 393 renal) greater than 26.9 µM, a TGI (NCI-H522 lung) greater than 25.3 µM and a TGI (SW-620 colon) greater than 100 µM. The TGI (NCI-H23 lung) was 1920 nM, the TGI (SK-MEL-2 melanoma) was greater than 30.4 µM and the TGI (SF-268 CNS) was greater than 56.7 µM. For the same compound, the TGI (DMS 273 small cell lung) was greater than 100 µM, the TGI (P388 leukemia) was 10.9 µM and the TGI (LOX IMVI melanoma) was greater than 100 µM. The TGI (KM20L2 colon) was greater than 100 µM, the TGI (P388/ADR leukemia) was 10.3 µM and the TGI (SK-MEL-28 melanoma) was greater than 100 µM. The TGI (UACC-62 melanoma) was greater than 39.2 µM, the TGI (A498 renal) was greater than 100 µM and the TGI (U251 CNS) was greater than 67.5 µM. The TGI (SK-MEL-5 melanoma) was greater than 31.7 µM, the TGI (XF 498 CNS) was greater than 61.8 µM and the TGI (M19-MEL melanoma) was greater than 100 µM. It also gave a TGI (HCT-116 colon) greater than 42.7 µM, a TGI (KM12 colon) greater than 21.8 µM and a TGI (HCT-15 colon) greater than 100 µM. For the same compound, the TGI (K-562 leukemia) was greater than 100 µM, the TGI (SK-OV-3 ovarian) was greater than 52.1 µM and the TGI (IGROV1 ovarian) was greater than 75.7 µM. It also gave a TGI (DLD-1 colon) greater than 25.7 µM, a TGI (NCI/ADR-RES ovarian) greater than 100 µM and a TGI (RPMI-8226 leukemia) greater than 31.7 µM. It also gave a TGI (HOP-18 NSCLC) greater than 64.2 µM, a TGI (MCF7 breast) greater than 100 µM and a TGI (SNB-19 CNS) greater than 79.2 µM. For the same compound, the TGI (SN12K1 renal) was greater than 34.8 µM, the TGI (COLO 205 colon) was greater than 36.3 µM and the TGI (UO-31 renal) was greater than 100 µM. For the same compound, the TGI (CCRF-CEM leukemia) was greater than 39.3 µM, the TGI (SN12C renal) was greater than 72.9 µM and the TGI (MALME-3M melanoma) was greater than 40.7 µM. The TGI (OVCAR-8 ovarian) was greater than 100 µM, the TGI (HOP-92 NSCLC) was greater than 100 µM and the TGI (DMS 114 small cell lung) was greater than 21.9 µM. The TGI (HT29 colon) was greater than 20.7 µM, the TGI (OVCAR-5 ovarian) was greater than 100 µM and the TGI (OVCAR-4 ovarian) was greater than 100 µM. It also gave a TGI (OVCAR-3 ovarian) greater than 28.4 µM, a TGI (EKVX NSCLC) greater than 100 µM and a TGI (UACC-257 melanoma) of 38.5 µM.
